Reference: US20230189808A1, “SELECTIVE HERBICIDES BASED ON SUBSTITUTED ISOXAZOLIN CARBOXAMIDES AND FURILAZOLE” (Bayer Aktiengesellschaft, priority 2020, published 2023)

What was measured:
ZEAMA Sileno [1] = test: Safener seed treatment with pre-emergence herbicide application, crop damage test in greenhouse; assay type: in vivo, maize; set-up: key to Reduction [Difference]: difference in % crop damage (visual score vs untreated control); details: for Reduction [%] / Reduction [Difference]: furilazole 0.25 g a.i./kg seed; for HER effect + SAF [%] / HER effect [%]: pre-emergence; for HER effect + SAF [%]: furilazole seed treatment 0.25 g a.i./kg seed; for HER effect [%]: % crop damage
Experimental: Seed Treatment; Pre-Emergence • A) Method Description
For the safener seed treatment, sufficient seeds of the respective crops (spring wheat, TRZAS; spring barley, HORVS; maize, ZEAMA) were weighed into screw top glass bottles approximately twice the volume of the seeds.
The specified safeners, formulated as wettable powder (WP) were weighed out so that the specified rates (g a·i·/kg seed) would be obtained, dissolved in water (1 ml water per 10 g of seeds), and added to the seeds to produce a slurry.
The bottles were capped and then placed in an overhead shaker (set at medium speed for ca. 60 minutes) so that the seeds were evenly coated with the slurry. The bottles were uncapped and the seeds were either placed on paper and dried for an interval of 3-4 hours prior to sowing, or directly sown. Seeds were placed in sandy loam soil in pots of a diameter of 7-8 cm, and covered with soil.
Pre-emergence application of the specified herbicides was done subsequently, on two sets of plants:
a) seed treatment with safener, as described above
The herbicides were formulated as WP and was sprayed onto the soil surface as an aqueous suspension at an equivalent water application rate of 300 1/ha.
After application, the test plants were kept in the greenhouse under good growth conditions. At intervals up to 4 weeks after application (=28 days after treatment; DAT), % crop damage observed on the treated plants was scored visually in comparison to control plants that had not received any safener or herbicide treatment.
Values in the table below are mean values of at least 2 replicates.
(§1) Plant Species, Variety: ZEAMA Sileno, Safener (SAF): Furilazole

ZEAMA Sileno [2] = test: Tank-mix post-emergence crop damage and safener test in greenhouse; assay type: in vivo, maize; details: final assessment
Experimental: Tank-Mix; Post-Emergence • A) Method Description
Seeds of crops (spring wheat, TRZAS; spring barley, HORVS; maize, ZEAMA) were placed in sandy loam soil in peat pots, covered with soil and cultivated in a greenhouse under good growth conditions. Two to three weeks after sowing, the test plants were treated at the 1 to 3-leaf stage. The herbicide/safener active compound combinations according to the invention, formulated as wettable powders or emulsion concentrates, and, in parallel tests, the correspondingly formulated individual active compounds were sprayed onto the green parts of the plants in various dosages using an amount of water of 300 1/ha (converted).
The pots were returned under good growing conditions in a glasshouse and a visual assessment of herbicidal effects was made at intervals from 1 to 3 weeks after herbicide application (DAT=days after treatment). Assessment was on a percentage basis in comparison with untreated control plants (0%=no injury, 100%=complete kill).
as §1

[3] = herbicide alone 80 g a.i./ha, 14 DAT
[4] = herbicide alone 80 g a.i./ha, 26 DAT
[5] = herbicide alone 40 g a.i./ha, 26 DAT
[6] = herbicide alone 40 g a.i./ha, 14 DAT

Row | SMILES | Reduction [%] (ZEAMA Sileno [1]; herbicide 80 g a.i./ha, 14 DAT) | Reduction [Difference] (ZEAMA Sileno [1]; herbicide 80 g a.i./ha, 14 DAT) | HER effect + SAF [%] (ZEAMA Sileno [1]; herbicide 80 g a.i./ha, 14 DAT) | HER effect [%] (ZEAMA Sileno [1]; [3]) | Reduction [%] (ZEAMA Sileno [1]; herbicide 80 g a.i./ha, 26 DAT) | Reduction [Difference] (ZEAMA Sileno [1]; herbicide 80 g a.i./ha, 26 DAT) | HER effect + SAF [%] (ZEAMA Sileno [1]; herbicide 80 g a.i./ha, 26 DAT) | HER effect [%] (ZEAMA Sileno [1]; [4]) | Reduction [%] (ZEAMA Sileno [2]; Reduction [Difference]*100/herbicide damage without safener, herbicide 32 g a.i./ha, furilazole 100 g a.i./ha) | Reduction [Difference] (ZEAMA Sileno [2]; herbicide damage without safener minus with safener, herbicide 32 g a.i./ha, furilazole 100 g a.i./ha) | HER effect + SAF [%] (ZEAMA Sileno [2]; post-emergence tank-mix, herbicide 32 g a.i./ha + furilazole 100 g a.i./ha) | HER effect [%] (ZEAMA Sileno [2]; post-emergence, herbicide alone 32 g a.i./ha, visual crop injury (0%=no injury, 100%=complete kill)) | Reduction [%] (ZEAMA Sileno [1]; herbicide 40 g a.i./ha, 26 DAT) | Reduction [Difference] (ZEAMA Sileno [1]; herbicide 40 g a.i./ha, 26 DAT) | HER effect + SAF [%] (ZEAMA Sileno [1]; herbicide 40 g a.i./ha, 26 DAT) | HER effect [%] (ZEAMA Sileno [1]; [5]) | Reduction [%] (ZEAMA Sileno [1]; herbicide 40 g a.i./ha, 14 DAT) | Reduction [Difference] (ZEAMA Sileno [1]; herbicide 40 g a.i./ha, 14 DAT) | HER effect + SAF [%] (ZEAMA Sileno [1]; herbicide 40 g a.i./ha, 14 DAT) | HER effect [%] (ZEAMA Sileno [1]; [6])
1 | CC1(C(=O)NC2C=CC(C(=O)O)C2)CC(c2cc(F)cc(F)c2)=NO1 (stereo not shown) [Example 1.36] | 40 | 33 | 50 | 83 | – | – | – | – | – | – | – | – | – | – | – | – | – | – | – | –
2 | CN(C)C(=O)SCCOC(=O)C1C=CC(NC(=O)C2(C)CC(c3cc(F)cc(F)c3)=NO2)C1 (stereo not shown) [Example 1.29] | 50 | 30 | 30 | 60 | – | – | – | – | – | – | – | – | – | – | – | – | – | – | – | –
3 | C=CC1(C(=O)NC2C=C(C(=O)OC)OC2)CC(c2cc(C)cc(C)c2)=NO1 (stereo not shown) [Example 1.90] | 80 | 20 | 5 | 25 | 100 | 30 | 0 | 30 | – | – | – | – | – | – | – | – | – | – | – | –
4 | C=CC1(C(=O)NC2C=CC(C(=O)OC)C2)CC(c2cc(F)cc(F)c2)=NO1 (stereo not shown) [Example 1.26] | 79 | 55 | 15 | 70 | 86 | 60 | 10 | 70 | 61 | 57 | 37 | 94 | 80 | 40 | 10 | 50 | – | – | – | –
5 | C=CC1(C(=O)NC2COC(C(=O)OC)C2)CC(c2cc(F)cc(F)c2)=NO1 (mixture of isomers) [Example 1.68] | 38 | 37 | 60 | 97 | 40 | 40 | 60 | 100 | – | – | – | – | 79 | 75 | 20 | 95 | 73 | 68 | 25 | 93
6 | CSCCOC(=O)C1C=CC(NC(=O)C2(C(F)(F)F)CC(c3cc(F)cc(F)c3)=NO2)C1 (stereo not shown) [Example 1.7] | – | – | – | – | – | – | – | – | – | – | – | – | – | – | – | – | 34 | 28 | 55 | 83
